Data reported in PMC8110578, “Phenylethynylbenzyl-modified biguanides inhibit pancreatic cancer tumor growth” (Scientific Reports, 2021).
Read-outs that look alike come from different tables or passages of the source.

How the values were obtained:
[1] = Safranin O assay, membrane potential of EYPC liposomes; settings: 5 mM (50 mol% relative to 10 mM EYPC)
Experimental: Figure 2 (A) Partition of compounds in an U-tube experiment. Concentration of biguanide on the trans-side of the U-tube at 48 h and 72 h at 25 °C, after addition of 250 µM of biguanide on the cis-side. (B) Variation in the internal pH of HPTS-containing EYPC liposomes. Intravesicular solution: 1 mM HPTS, 10 mM HEPES, and 100 mM NaCl, adjusted to pH = 7.4, and extravesicular solution: 10 mM HEPES and 100 mM NaCl, adjusted to pH = 7.4. Biguanidiums were injected after 50 s at 5 mM (50 mol% relative to the 10 mM EYPC concentration), a NaOH pulse was induced at 300 s, and the liposomes were lysed with Triton-X at 550 s. Each curve is the average of three independent measurements. (C) Fluorescence of safranin O in the EYPC liposomes. Biguanidium salts were injected at 5 mM (50 mol% relative to the 10 mM EYPC concentration) at 50 s. Each curve is the average of three independent measurements. […] Mitochondrial isolation was performed according to the previously reported protocol.

KP4 cells [2] = experiment: Growth assay (crystal violet), KP4 cells; format: cell-based, human; settings: for IC50: KP4 cells
Experimental: (§1) All chemicals were purchased from Aldrich Chemicals in their highest purity and used without further purification. Deuterated dimethylsulfoxide (DMSO-d^6) and deuterated chloroform (CDCl3) were purchased from CDN Isotopes. NMR spectra were recorded on Bruker advance 400 and 100 spectrometers. Coupling constants are given in hertz (Hz) and chemical shifts are given in parts per million (ppm, δ) measured relative to the residual solvent (the multiplicity of the signals are given as s: singlet, d: doublet, t: triplet, and m: multiplet). High-resolution mass spectra (HRMS) were recorded on a TSQ Quantum Ultra (Thermo Scientific) triple quadrupole with accurate mass option instrument (Université de Montréal Mass Spectrometry Facility). MS experiences were performed using an UltrafleXtreme MALDI TOF/TOF mass spectrometer equipped with a SmartBeam II Nd:Yag/355 nm laser operating at 1 kHz and providing a laser focus down to 20 μm in diameter (Bruker Daltonics, Billerica, MA). The data acquisition for MS was performed in positive ion mode using the linear geometry with flexControl 3.4 (Bruker Daltonics, Billerica, MA). Acceleration voltage was set to + 25 kV and all other instrumental parameters (delayed extraction parameters, source voltages, detector gain, laser energy, etc.) were optimized for maximum S/N for the drug compounds. L-α-Phosphatidylcholine was purchased from Avanti Polar Lipids. Transport and depolarization studies as well as absorbance measurements were performed on a Varian Cary Eclipse fluorescence spectrophotometer. The hemolysis assays were performed on a Fluostar Optima plate reader. Single crystals of C18H18F3N5O3S were obtained from chloroform. A suitable crystal was selected and analysed on a Bruker Venture Metaljet diffractometer. Crystal violet retention assay was used for cell growth assays and IC50 were determined using Prism (GraphPad). NAD/NADH quantitation colorimetric kit (#K337-100) from Biovision was used according to manufacturer’s instructions. ECAR (extracellular acidification rate) and OCR of KP4 cells (oxygen consumption rate) were measured on a Seahorse XF-24 (Agilent).
Experimental. KP4 (Riken RCB1005) and PSN1 (ATCC: CRM-CRL-3211), were cultured in Dulbecco's modified Eagle's medium (DMEM) (Wisent, St-Bruno, QC) supplemented with 10 % of fetal bovine serum (FBS) (Wisent). HPNE hTERT (ATCC: CRL1423) were cultured in a mix of 75% DMEM without glucose (Sigma Cat#. D-5030) with additional 2 mM L-glutamine and 1.5 g/L sodium bicarbonate, 25% Medium M3 Base (Incell Corp. Cat# M300F- 500), fetal bovine serum 5% (wisent 10 ng/ml human recombinant EGF (Sigma-Aldrich), 5.5 mM D-glucose (Sigma-Aldrich), 750 ng/ml puromycin (Sigma-Aldrich). For dose-response assays, cells were seeded in 96 well plates (company). After 24 h, treatments were applied and cells were grown for 3 more days. Crystal violet retention assay used for cell growth assays were described previously^2. The data is expressed as relative absorbance of crystal violet extracted from the cells and diluted in 10 % acetic acid. IC50 were determined using Prism (GraphPad). Tumor spheres were grew according to Ferbeyre et al^3.

AH375 cells = experiment: Tumor sphere formation, AH375 cells; format: cell-based, mouse; settings: 24 h treatment
KP4 cells [3] = experiment: Seahorse analysis of OCR and ECAR, KP4 cells; format: cell-based, human; settings: 1b 15 µM; for Effect on ECAR (extracellular acidification rate): metformin; for Effect on oxygen consumption rate (OCR): metformin 5 mM
Excerpt: Figure 3 Effects of biguanides on cell proliferation and viability in pancreatic cancer cells. […]. […] | decimal sign comma or point
Next, we used the Seahorse analyser to quantify the ability of compound 1b to affect oxygen consumption rate (OCR) in KP4 cells. […]. […] […].
as §1
Experimental. ECAR (extracellular acidification rate) and OCR of KP4 cells (oxygen consumption rate) were measured on a Seahorse XF-24 (Agilent). The day before the experiment, KP4 cells were seeded in XF24 FluxPak seahorse plates (Agilent) at a density of 40.000 cells per well, in usual KP4 culture medium (DMEM, 10% FSB). […]

KP4 cells [4] = experiment: Mitochondrial morphology by anti-TOMM20 immunofluorescence, KP4 cells; format: cell-based, human; settings: 24 h, 1b 15µM, metformin 5mM
Experimental: The action of biguanides in mitochondria can lead to morphological alterations that include disorganisation of the cristae. […].  Figure 4 Effects of biguanides on mitochondrial morphology. (A) Mitochondrial morphology in KP4 cells 24 h following the indicated treatments as visualised by anti-TOMM20 immunofluorescence. Scale bar = […]. […] The data represents the mean of 2 biological replicates and for each replicate three counts of 50 cells were done. n = 300 cells per treatment. Data was analyzed with one way ANOVA followed by Tukey HSD test.
Experimental. KP-4 cells were seeded at 50% confluency on slides in 6-well plates. […] After 24h of treatment, cells were washed twice with PBS1X then were fixed during 10 minutes at 4°C with 4% paraformaldehyde. Cells were washed again three times with PBS1X then permeabilized during 5 min in PBS1X, 2%BSA, 0,2%Triton X-100. Slides were washed three times 10 minutes with 1XPBS, 2%BSA, then incubated overnight with primary antibody anti-TOMM20 (Rabbit, 1:150, Santa Cruz, sc-11415) diluted in 1XPBS, 2%BSA. Slides were washed three times 10 minutes with 1XPBS, 2%BSA then incubated 1 hour at RT with anti-Rabbit-AlexaFluor568 secondary antibody (Goat, 1:1000, ThermoFisher Scientific). Cells were washed four times 10 minutes with 1XPBS then mounted with Vectashield mouting media containing DAPI (Vector laboratories H-1200). […]

[5] = Homo sapiens, KP-4, 72 h, 72 hours, read-out: IC50

SMILES	Membrane depolarization (Safranin-O fluorescence) [1]	IC50 (KP4 cells [2]; [5])	IC50 fold lower than phenformin (KP4 cells [2]; KP4 and Panc1 cells)	IC50 (KP4 cells [2]; 3 days treatment, crystal violet retention assay, read-out: IC50 KP4)	Fold more active than metformin (KP4 cells [2]; conclusion)	Decrease of the number of AH375 spheres (AH375 cells; 5 µM)	Effect on ECAR (extracellular acidification rate) (KP4 cells [3])	Effect on oxygen consumption rate (OCR) (KP4 cells [3])	Effect on mitochondrial morphology (KP4 cells [4])	Decrease of the number of AH375 spheres (AH375 cells; 1 mM)
N=C(N)NC(=N)NCc1ccc(C#Cc2ccccc2)cc1 [1b, 4-(phenylethynyl)benzylbiguanide]	depolarization of the membrane	6.1 µM	8–12 fold	6.13 µM	1000 fold	75%	also observed with compound 1b	inhibited OCR	punctuated pattern typical of fragmented mitochondria	–
CN(C)C(=N)NC(=N)N [metformin, 1,1-dimethylbiguanide, reference compound]	did not show this activity	~5000 µM	–	–	–	–	increase of the ECAR	Inhibition of OCR	loss of the filamentous mitochondrial network	50%
